Laboratory results: BindingDB's records for doi:10.1016/0960-894X(95)00044-T (1995)

Target: DNA
Test: Inhibition of calf thymus DNA/ethidium bromide complex formation.

| SMILES | EC50 [µM] |
| --- | --- |
| Cc1cc(-c2c(F)cc3c4nn(C5CCOCC5)c(=O)c-4cn(C4CC4)c3c2F)cc(C)n1 [5-Cyclopropyl-7-(2,6-dimethyl-pyridin-4-yl)-6,8-difluoro-2-(tetrahydro-pyran-4-yl)-2,5-dihydro-pyrazolo[4,3-c]quinolin-3-one] | > 50 |
| Cc1cc(-c2c(F)cc3c4nn([C@H]5CC[C@H](N(C)C)CC5)c(=O)c-4cn(C4CC4)c3c2F)cc(C)n1 [5-Cyclopropyl-2-(4-dimethylamino-cyclohexyl)-7-(2,6-dimethyl-pyridin-4-yl)-6,8-difluoro-2,5-dihydro-pyrazolo[4,3-c]quinolin-3-one] | > 50 |
| Cc1cc(-c2c(F)cc3c(=O)ccn(C4CC4)c3c2F)cc(C)n1 [1-Cyclopropyl-7-(2,6-dimethyl-pyridin-4-yl)-6,8-difluoro-1H-quinolin-4-one] | > 55 |
| Cc1cc(-c2c(F)cc3c4nn(C5CCN(C)CC5)c(=O)c-4cn(C4CC4)c3c2F)cc(C)n1 [5-Cyclopropyl-7-(2,6-dimethyl-pyridin-4-yl)-6,8-difluoro-2-(1-methyl-piperidin-4-yl)-2,5-dihydro-pyrazolo[4,3-c]quinolin-3-one] | > 50 |
| Cc1cc(-c2c(F)cc3c4nn([C@H]5CC[C@H](N)CC5)c(=O)c-4cn(C4CC4)c3c2F)cc(C)n1 [2-(4-Amino-cyclohexyl)-5-cyclopropyl-7-(2,6-dimethyl-pyridin-4-yl)-6,8-difluoro-2,5-dihydro-pyrazolo[4,3-c]quinolin-3-one] | > 50 |
| Cc1cc(-c2c(F)cc3c4nn([C@H]5CC[C@@H](N)CC5)c(=O)c-4cn(C4CC4)c3c2F)cc(C)n1 [2-(4-Amino-cyclohexyl)-5-cyclopropyl-7-(2,6-dimethyl-pyridin-4-yl)-6,8-difluoro-2,5-dihydro-pyrazolo[4,3-c]quinolin-3-one] | > 50 |
| Cc1cc(-c2c(F)cc3c4nn(CCN(C)C)c(=O)c-4cn(C4CC4)c3c2F)cc(C)n1 [5-Cyclopropyl-2-(2-dimethylamino-ethyl)-7-(2,6-dimethyl-pyridin-4-yl)-6,8-difluoro-2,5-dihydro-pyrazolo[4,3-c]quinolin-3-one] | 0.93 |
| Cc1cc(-c2c(F)cc3c4nn(CCNCCO)c(=O)c-4cn(C4CC4)c3c2F)cc(C)n1 [5-Cyclopropyl-7-(2,6-dimethyl-pyridin-4-yl)-6,8-difluoro-2-[2-(2-hydroxy-ethylamino)-ethyl]-2,5-dihydro-pyrazolo[4,3-c]quinolin-3-one] | 1.2 |
| Cc1cc(-c2c(F)cc3c4n[nH]c(=O)c-4cn(C4CC4)c3c2F)cc(C)n1 [5-Cyclopropyl-7-(2,6-dimethyl-pyridin-4-yl)-6,8-difluoro-2,5-dihydro-pyrazolo[4,3-c]quinolin-3-one] | 27 |
| Cc1cc(-c2c(F)cc3c4nn(CCCN(C)C)c(=O)c-4cn(C4CC4)c3c2F)cc(C)n1 [5-Cyclopropyl-2-(3-dimethylamino-propyl)-7-(2,6-dimethyl-pyridin-4-yl)-6,8-difluoro-2,5-dihydro-pyrazolo[4,3-c]quinolin-3-one] | > 50 |
| Cc1cc(-c2c(F)cc3c4nn([C@H]5CC[C@@H](N(C)C)CC5)c(=O)c-4cn(C4CC4)c3c2F)cc(C)n1 [5-Cyclopropyl-2-(4-dimethylamino-cyclohexyl)-7-(2,6-dimethyl-pyridin-4-yl)-6,8-difluoro-2,5-dihydro-pyrazolo[4,3-c]quinolin-3-one] | > 50 |
| Cc1cc(-c2c(F)cc3c4nn(CCO)c(=O)c-4cn(C4CC4)c3c2F)cc(C)n1 [5-Cyclopropyl-7-(2,6-dimethyl-pyridin-4-yl)-6,8-difluoro-2-(2-hydroxy-ethyl)-2,5-dihydro-pyrazolo[4,3-c]quinolin-3-one] | > 60 |
| Cc1cc(-c2c(F)cc3c4nn(C5CCC(C)CC5)c(=O)c-4cn(C4CC4)c3c2F)cc(C)n1 (stereo unspecified) [5-Cyclopropyl-7-(2,6-dimethyl-pyridin-4-yl)-6,8-difluoro-2-(4-methyl-cyclohexyl)-2,5-dihydro-pyrazolo[4,3-c]quinolin-3-one] | > 50 |
| Cc1cc(-c2c(F)cc3c4nn(C5CCCCC5)c(=O)c-4cn(C4CC4)c3c2F)cc(C)n1 [2-Cyclohexyl-5-cyclopropyl-7-(2,6-dimethyl-pyridin-4-yl)-6,8-difluoro-2,5-dihydro-pyrazolo[4,3-c]quinolin-3-one] | > 50 |

Next, values leading:

| EC50 [µM] | SMILES |
| --- | --- |
| > 54 | Cc1cc(-c2c(F)cc3c(=O)c(C(=O)O)cn(C4CC4)c3c2F)cc(C)n1 [WIN-57294] |
| > 51 | CC(=O)N[C@H]1CC[C@H](n2nc3c4cc(F)c(-c5cc(C)nc(C)c5)c(F)c4n(C4CC4)cc-3c2=O)CC1 [N-{4-[5-Cyclopropyl-7-(2,6-dimethyl-pyridin-4-yl)-6,8-difluoro-3-oxo-3,5-dihydro-pyrazolo[4,3-c]quinolin-2-yl]-cyclohexyl}-acetamide] |
| > 52 | CC(=O)N[C@H]1CC[C@@H](n2nc3c4cc(F)c(-c5cc(C)nc(C)c5)c(F)c4n(C4CC4)cc-3c2=O)CC1 [N-{4-[5-Cyclopropyl-7-(2,6-dimethyl-pyridin-4-yl)-6,8-difluoro-3-oxo-3,5-dihydro-pyrazolo[4,3-c]quinolin-2-yl]-cyclohexyl}-acetamide] |
| > 60 | CCOC(=O)Cn1nc2c3cc(F)c(-c4cc(C)nc(C)c4)c(F)c3n(C3CC3)cc-2c1=O [[5-Cyclopropyl-7-(2,6-dimethyl-pyridin-4-yl)-6,8-difluoro-3-oxo-3,5-dihydro-pyrazolo[4,3-c]quinolin-2-yl]-acetic acid ethyl ester] |
| > 60 | Cc1cc(-c2c(F)cc3c4nn(C)c(=O)c-4cn(C4CC4)c3c2F)cc(C)n1 [5-Cyclopropyl-7-(2,6-dimethyl-pyridin-4-yl)-6,8-difluoro-2-methyl-2,5-dihydro-pyrazolo[4,3-c]quinolin-3-one] |
| > 60 | Cc1cc(-c2c(F)cc3c4nn(CC(=O)O)c(=O)c-4cn(C4CC4)c3c2F)cc(C)n1 [[5-Cyclopropyl-7-(2,6-dimethyl-pyridin-4-yl)-6,8-difluoro-3-oxo-3,5-dihydro-pyrazolo[4,3-c]quinolin-2-yl]-acetic acid] |
| > 60 | Cc1cc(-c2c(F)cc3c4nn(-c5ccccc5)c(=O)c-4cn(C4CC4)c3c2F)cc(C)n1 [5-Cyclopropyl-7-(2,6-dimethyl-pyridin-4-yl)-6,8-difluoro-2-phenyl-2,5-dihydro-pyrazolo[4,3-c]quinolin-3-one] |
